Experimental data reported in patent US20260327233A1, “Heteroaryl Compounds as Ligand Directed Degraders of IRAK4” (Celgene Corporation, priority 2023, published 2026).
Structures can show the parent of a compound that is named as a salt.

Tests used:
IRAK4 [1] = molecular target: T1, IRAK4 (Homo sapiens, UniProt Q9NWZ3); assay: IRAK4 PhosphoSens Biochemical Assay (BIOCHEM); settings: IRAK4 1 nM; ATP and Sox conjugated peptide substrate AQT0326; pH 7.5; room temperature; 240 minutes
T1 sequence (Q9NWZ3 1-460): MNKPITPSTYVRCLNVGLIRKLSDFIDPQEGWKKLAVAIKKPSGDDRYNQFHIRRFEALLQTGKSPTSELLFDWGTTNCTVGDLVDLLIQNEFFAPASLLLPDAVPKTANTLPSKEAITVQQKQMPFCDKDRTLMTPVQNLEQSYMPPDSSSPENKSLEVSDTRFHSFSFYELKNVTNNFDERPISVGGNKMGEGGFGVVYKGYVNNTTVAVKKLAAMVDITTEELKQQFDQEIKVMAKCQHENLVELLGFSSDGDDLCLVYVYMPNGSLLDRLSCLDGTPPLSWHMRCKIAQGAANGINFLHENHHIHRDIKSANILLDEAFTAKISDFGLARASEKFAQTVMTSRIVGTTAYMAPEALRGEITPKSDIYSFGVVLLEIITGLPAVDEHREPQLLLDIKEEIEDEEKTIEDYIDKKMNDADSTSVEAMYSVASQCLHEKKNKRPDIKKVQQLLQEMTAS
Procedure: The PhosphoSens® biochemical assay was performed as described by the vendor (AssayQuant Technologies Inc. Marlborough, MA). A 1.25× stock solution of IRAK4 (PV4002, ThermoFisher Scientific, Waltham, MA) and a 5× stock solution of ATP and Sox conjugated peptide substrate, AQT0326 (CSKS-AQT0326B, AssayQuant Technologies), were prepared in 1× kinase reaction buffer consisting of 50 mM HEPES, pH 7.5, 0.01% Brij-35, 0.5 mM EGTA, 20 mM MgCl2 and 1 mM DTT. 10 μL of the ATP and substrate solution mix, for a final concentration of 200 µM ATP and […] peptide substrate, was added to a Corning 3574 384-well, white, non-binding surface microtiter plate containing 0.5 μL of serially diluted test compounds prepared in DMSO. The reactions were started with the addition of 40 μL of the enzyme solution, for a final IRAK4 concentration of 1 nM, and monitored every 71 seconds for 240 minutes at λEX 360/λEM 485 in a BioTek Synergy H4 plate reader (Agilent Technologies, Santa Clara, CA) at room temperature. The initial linear portions of the progress curves were fit according to a linear equation to yield the slopes and converted to % inhibition based on a value of 100% activity for the no inhibitor treated control. IC50 values of each compound were obtained by fitting the % inhibition-compound concentration curves using Dotmatics software (Dotmatics, Bishops Stortford, Hertfordshire, England),

IRAK4 [2] = molecular target: T1, IRAK4; assay: ALE THP1 HTRF (IRAK4 HTRF in THP1 cell lysate, Cisbio HTRF kit); assay type: cell-based; set-up: THP1 Homogeneous Time Resolved Fluorescence (ALE THP1 HTRF) Procedure; endogenous in cells; host or cells: THP1; settings: anti-IRAK4 d2 / anti-IRAK4 k antibodies
Procedure: Cell culture media was prepared in a tissue culture hood in a sterile environment by adding 10% FBS and 1% Penicillin Streptomycin to 500 mL no phenol red RPMI 1640 media. The media was filtered through a Nalgene Bottle Top Filter and stored at 4° C.
For Homogenous Time Resolved Fluorescence (HTRF) assays, a Cisbio HTRF kit was used, which included: Lysis Buffer #1 4×, Blocking Reagent #3 100×, 20× Antibody 1 (Anti-IRAK4 d2), 20× Antibody 2 (Anti-IRAK4 k), and Detection Buffer.
4× Lysis Buffer was stored at 4° C. For use as 1× Lysis buffer, the 4× solution was diluted with de-ionized water (distilled water, Gibco Cat. #15230279) and 100× Blocking Reagent in a 1:3:0.04 volume ratio.
20× Antibody Solution aliquots were stored at −80° C. and the Detection Buffer was stored at 4° C. For use as a 1× Antibody Solution, the 20× Antibody Solution aliquot was diluted with Detection Buffer in a 1:19 volume ratio.
Cells were lysed at room temperature for 45 min with shaking. A BCA protein assay was performed and normalization was conducted to the desired total protein concentration with 1× lysis buffer. Next, 1× Antibody Solutions were prepared by adding 380 μL Detection Buffer to 20 μL 20× Antibody Solution aliquots and mixing well. 1× Antibody Solutions were combined 1:1 and briefly vortexed. For control wells, 20 μL 1× anti IRAK4-k Antibody Solution was saved. The 384-well plate (ProxiPlate-384 Plus, Perkin Elmer Cat. #6008289) was loaded by adding 4 μL of the mixed Antibody Solution to empty wells using a single channel repeater. Using a multi-channel repeater, 16 μL lysate was added per well, and any bubbles that were formed were popped with 20 μL pipette tips and Kimwipe edges. In column 10, triplicates of each control were prepared. In wells A10, B10, and C10, buffer control was prepared by adding 16 μL Lysis Buffer and 4 μL Detection Buffer. In wells D10, E10, and F10, cryptate control was prepared by adding 16 μL Lysis Buffer, 2 μL Detection Buffer, and 2 μL 1× anti-IRAK4-k Antibody Solution. In wells G10, H10, and 110, a negative control was prepared by adding 16 μL Lysis Buffer and 4 μL mixed Antibody Solution. The plate was sealed with a clear seal and covered with an aluminum lid. The plate was spun down at 800 g for 5 min and incubated in the dark at room temperature overnight. The next day, the plate was spun down at 800 g for 5 min. The samples were analyzed by a plate reader (Envision, PerkinElmer) using the Desnor 384 HTRF program.

SMILES: N#Cc1nn([C@H]2CC[C@H](CN3CCN(c4ccc5c(c4)C(=O)N(C4CCC(=O)NC4=O)C5=O)CC3)CC2)cc1NC(=O)c1cnn2ccc(N3CCNCC3)nc12 (stereo partly drawn) [Compound P-6, N-[3-Cyano-1-[4-[[4-[2-(2,6-dioxo-3-piperidyl)-1,3-dioxo-isoindolin-5-yl]piperazin-1-yl]methyl]cyclohexyl]pyrazol-4-yl]-5-piperazin-1-yl-pyrazolo[1,5-a]pyrimidine-3-carboxamide dihydrochloride]
- IC50 (IRAK4 [1]): 8.1 nM
- EC50 (IRAK4 [2]): 2820 nM
- ALE THP1 HTRF YMIN (IRAK4 [2]): 26%

SMILES: O=C1CCC(N2C(=O)c3ccc(N4CCN(C(=O)C5CCC(n6cc(NC(=O)c7cnn8ccc(N9CCNCC9)nc78)c(C(F)F)n6)CC5)CC4)cc3C2=O)C(=O)N1 (stereo not drawn) [Compound P-16]
- IC50 (IRAK4 [1]): 0.5 nM
- EC50 (IRAK4 [2]): 13 nM
- ALE THP1 HTRF YMIN (IRAK4 [2]): 41%

SMILES: N#Cc1nn(C2CCC(C(=O)NC3CCN(c4ccc5c(c4)C(=O)N(C4CCC(=O)NC4=O)C5=O)CC3)CC2)cc1NC(=O)c1cnn2ccc(N3CCNCC3)nc12 (stereo not drawn) [Compound P-3]
- IC50 (IRAK4 [1]): 4.3 nM
- EC50 (IRAK4 [2]): > 10000 nM
- ALE THP1 HTRF YMIN (IRAK4 [2]): 54%

SMILES: N#Cc1nn([C@H]2CC[C@H](C(=O)NC3CCN(c4ccc5c(c4)C(=O)N(C4CCC(=O)NC4=O)C5=O)CC3)CC2)cc1NC(=O)c1cnn2ccc(N3C[C@H](N)C[C@@H](F)C3)nc12 (stereo partly drawn) [Compound P-23]
- IC50 (IRAK4 [1]): < 0.5 nM
- EC50 (IRAK4 [2]): 8 nM
- ALE THP1 HTRF YMIN (IRAK4 [2]): 20%

SMILES: CN(C[C@H]1CC[C@H](n2cc(NC(=O)c3cnn4ccc(N5CCOCC5)nc34)c(C(F)F)n2)CC1)[C@H]1CC[C@H](Nc2cccc3c2C(=O)N(C2CCC(=O)NC2=O)C3=O)CC1 (stereo partly drawn) [Compound P-36]
- IC50 (IRAK4 [1]): 0.9 nM
- EC50 (IRAK4 [2]): 9 nM
- ALE THP1 HTRF YMIN (IRAK4 [2]): 29%

SMILES: N[C@@H]1C[C@@H](F)CN(c2ccn3ncc(C(=O)Nc4cn([C@H]5CC[C@H](CCN6CCN(c7ccc8c(c7)CN(C7CCC(=O)NC7=O)C8=O)CC6)CC5)nc4C(F)F)c3n2)C1 (stereo partly drawn) [Compound P-30, N-[3-(Difluoromethyl)-1-[4-[2-[4-[2-(2,6-dioxo-3-piperidyl)-1-oxo-isoindolin-5-yl]piperazin-1-yl]ethyl]cyclohexyl]pyrazol-4-yl]-5-[(3R,5R)-3-amino-5-fluoro-1-piperidyl]pyrazolo[1,5-a]pyrimidine-3-carboxamide dihydrochloride]
- IC50 (IRAK4 [1]): < 0.5 nM
- EC50 (IRAK4 [2]): 8 nM
- ALE THP1 HTRF YMIN (IRAK4 [2]): 10%

SMILES: N[C@@H]1C[C@@H](F)CN(c2ccn3ncc(C(=O)Nc4cn([C@H]5CC[C@H](NC(=O)C6CCN(c7ccc8c(c7)C(=O)N(C7CCC(=O)NC7=O)C8=O)CC6)CC5)nc4C(F)F)c3n2)C1 (stereo partly drawn) [Compound P-29, 5-[(3R,5R)-3-Amino-5-fluoro-1-piperidyl]-N-[3-(difluoromethyl)-1-[4-[[1-[2-(2,6-dioxo-3-piperidyl)-1,3-dioxo-isoindolin-5-yl]piperidine-4-carbonyl]amino]cyclohexyl]pyrazol-4-yl]pyrazolo[1,5-a]pyrimidine-3-carboxamide hydrochloride]
- IC50 (IRAK4 [1]): < 0.5 nM
- EC50 (IRAK4 [2]): 4 nM
- ALE THP1 HTRF YMIN (IRAK4 [2]): 10%

SMILES: Cc1nn([C@H]2CC[C@H](C(=O)NC3CCN(c4ccc5c(c4)C(=O)N(C4CCC(=O)NC4=O)C5=O)CC3)CC2)cc1NC(=O)c1cnn2ccc(N3C[C@H](N)C[C@@H](F)C3)nc12 (stereo partly drawn) [Compound P-27, N-[1-[4-[[1-[2-(2,6-dioxo-3-piperidyl)-1,3-dioxo-isoindolin-5-yl]-4-piperidyl]carbamoyl]cyclohexyl]-3-methyl-pyrazol-4-yl]-5-[(3R,5R)-3-amino-5-fluoro-1-piperidyl]pyrazolo[1,5-a]pyrimidine-3-carboxamide hydroxhloride]
- IC50 (IRAK4 [1]): < 0.5 nM
- EC50 (IRAK4 [2]): 26 nM
- ALE THP1 HTRF YMIN (IRAK4 [2]): 24%

SMILES: O=C1CCC(N2Cc3cc(N4CCC(NC(=O)[C@H]5CC[C@H](n6cc(NC(=O)c7cnn8ccc(N9CCOCC9)nc78)c(C(F)F)n6)CC5)CC4)ccc3C2=O)C(=O)N1 (stereo partly drawn) [Compound P-31, N-[3-(difluoromethyl)-1-[4-[[1-[2-(2,6-dioxo-3-piperidyl)-1-oxo-isoindolin-5-yl]-4-piperidyl]carbamoyl]cyclohexyl]pyrazol-4-yl]-5-morpholino-pyrazolo[1,5-a]pyrimidine-3-carboxamide]
- IC50 (IRAK4 [1]): < 0.5 nM
- EC50 (IRAK4 [2]): 7 nM
- ALE THP1 HTRF YMIN (IRAK4 [2]): 27%

SMILES: N#Cc1nn([C@H]2CC[C@H](CN3CCC(c4ccc5c(c4)C(=O)N(C4CCC(=O)NC4=O)C5=O)CC3)CC2)cc1NC(=O)c1cnn2ccc(N3CCNCC3)nc12 (stereo partly drawn) [Compound P-17]
- IC50 (IRAK4 [1]): 1.2 nM
- EC50 (IRAK4 [2]): > 10000 nM
- ALE THP1 HTRF YMIN (IRAK4 [2]): >95%

SMILES: N#Cc1nn([C@H]2CC[C@H](C(=O)N3CCN(c4ccc5c(c4)C(=O)N(C4CCC(=O)NC4=O)C5=O)CC3)CC2)cc1NC(=O)c1cnn2ccc(N3CCC[C@@H](N)C3)nc12 (stereo partly drawn) [Compound P-5]
- IC50 (IRAK4 [1]): 0.5 nM
- EC50 (IRAK4 [2]): > 10000 nM
- ALE THP1 HTRF YMIN (IRAK4 [2]): 60%

SMILES: N[C@@H]1C[C@@H](F)CN(c2ccn3ncc(C(=O)Nc4cn([C@H]5CC[C@H](C(=O)NC6CCN(c7ccc8c(c7)C(=O)N(C7CCC(=O)NC7=O)C8=O)CC6)CC5)nc4C(F)(F)F)c3n2)C1 (stereo partly drawn) [Compound P-20]
- IC50 (IRAK4 [1]): < 0.5 nM
- EC50 (IRAK4 [2]): 11 nM
- ALE THP1 HTRF YMIN (IRAK4 [2]): 22%

SMILES: O=C1CCC(N2C(=O)c3ccc(N4CCN(C(=O)[C@H]5CC[C@H](n6cc(NC(=O)c7cnn8ccc(N9CCNCC9)nc78)c(C(F)(F)F)n6)CC5)CC4)cc3C2=O)C(=O)N1 (stereo partly drawn) [Compound P-14]
- IC50 (IRAK4 [1]): 1.6 nM
- EC50 (IRAK4 [2]): 10000 nM
- ALE THP1 HTRF YMIN (IRAK4 [2]): 73%

SMILES: N[C@@H]1C[C@@H](F)CN(c2ccn3ncc(C(=O)Nc4cn(C5CCN(CCN6CCN(c7ccc8c(c7)CN(C7CCC(=O)NC7=O)C8=O)CC6)CC5)nc4C(F)F)c3n2)C1 (stereo partly drawn) [Compound P-38, N-[3-(difluoromethyl)-1-[1-[2-[4-[2-(2,6-dioxo-3-piperidyl)-1-oxo-isoindolin-5-yl]piperazin-1-yl]ethyl]-4-piperidyl]pyrazol-4-yl]-5-[(3R,5R)-3-amino-5-fluoro-1-piperidyl]pyrazolo[1,5-a]pyrimidine-3-carboxamide]
- IC50 (IRAK4 [1]): < 0.5 nM
- EC50 (IRAK4 [2]): 6 nM
- ALE THP1 HTRF YMIN (IRAK4 [2]): 10%
